Experimental data: ChEMBL document CHEMBL3507680, “University of Dundee, Gates Library screen for HepG2 cell viability”

assay: Human HepG2 cell viability assay in 384 well format; assay type: toxicity, cell-based; design: dose 125 nL, time 70.5 hour; cytotoxicity at 70.5 h: concentration not given beside the values; settings: HepG2 cells, read-out: Inhibition

Point of comparison: `CCc1ccc(NC(=O)C(C)N2CCN(Cc3ncc[nH]3)CC2)cc1` (stereo not drawn), cytotoxicity at 70.5 h -2.82%. Against it:
- CN(C)CCCNC(=O)C(c1cccc(F)c1)N(C)C (stereo not drawn) — higher, -2.43%
- COCCNc1ccc(CC2CCCN(C3CCOCC3)C2)nn1 (stereo not drawn) — lower, -4.94%
- Cn1ccnc1CCNS(=O)(=O)c1cccnc1 — lower, -4.82%
- Cc1nc2n(n1)CC(NCc1cc(Cl)c3c(c1)OCCCO3)CC2 (stereo not drawn) — lower, -6.52%
- Cc1cc(C)c2c(c1)C(NCc1nnc3n1CCC3)CCCO2 (stereo not drawn) — lower, -5.63%
- O=C(Cc1cccnc1)NCCS(=O)(=O)c1ccccc1F — lower, -7.32%
- CCc1nc(C)c(C(C)N(C)CCc2ccncc2)s1 (stereo not drawn) — higher, 0.87%
- COc1cc(N2CCC3(CC2)OCC(=O)NC3C)ncn1 (stereo not drawn) — lower, -4.57%
- O=C(NC1CC1)[C@H]1CC[C@@H]2[C@@H](CCN2c2ncc(F)cn2)O1 — lower, -11.8%
- CC(=O)N(Cc1ncc(C(C)C)o1)C1CCN(CC2CCC2)C1 (stereo not drawn) — lower, -3.28%
- NCC1Cc2cc(-c3cncc(C(=O)N4CCOCC4)n3)cc(Cl)c2O1 (stereo not drawn) — lower, -4.26%
- COc1ccc(-c2ccc(C(=O)N3CCOCC3CC(N)=O)o2)cc1 (stereo not drawn) — higher, -2.54%
- CCOCC1c2c(ncn2C(C)C)CCN1C(=O)C1CC1 (stereo not drawn) — lower, -3.05%
- COc1cc(C)c(C(C)Nc2ncc(C(N)=O)cc2Cl)cc1OC (stereo not drawn) — lower, -12.8%
- O=C(NC1CCOCC1)c1cccc(C2CCCNC2)c1 (stereo not drawn) — lower, -10.4%
- CN1CCN(C(=O)C2CCN(c3cccnn3)CC2)CC1 — lower, -5.88%
- Cc1noc(C)c1CN1CCN(C(=O)Cn2cncn2)CC1 — lower, -5.67%
- CCc1noc(C(C)N2CCC(N3CCCC3)CC2)n1 (stereo not drawn) — higher, 24.3%
- NC(=O)CCCNC(=O)COc1ccccc1C(F)(F)F — lower, -5.37%
- Cn1nc2c(cc1=O)CN(CC(=O)Nc1cc(C(C)(C)C)no1)CC2 — higher, 13.4%
- CN1CCC(c2cccc(Cc3ccc(C(F)(F)F)cc3)n2)CC1 — higher, -0.939%
- Cn1ccnc1C1(O)CCCN(Cc2ccncc2)CC1 (stereo not drawn) — higher, -2.25%
- COc1cc(CNc2ccccc2Cl)ccc1OCC(=O)O — higher, 19%
- CC(C)=CCN1C(=O)[C@H]2CC[C@@H]1CN(c1ncccn1)C2 — lower, -21%
- Cc1ccc2c(c1)C(NCc1ccccn1)CC2 (stereo not drawn) — lower, -12.6%
- Cc1cnc(N2C[C@@H]3[C@@H](C2)OCC(=O)N3CCN(C)C)nc1 — lower, -3.72%
- c1cnn(CC2CCCN2c2ncnc3ccsc23)c1 (stereo not drawn) — higher, 10.7%
- CC(C)n1ccnc1CN1CCOC(CCc2ccccc2)C1 (stereo not drawn) — lower, -13.7%
- Cc1cnc(C(NC(=O)NCc2nc(C3CC3)no2)C2CC2)s1 (stereo not drawn) — higher, -1.45%
- Cc1noc(C)c1C(C)C(=O)N1CCCN(Cc2cscn2)CC1 (stereo not drawn) — lower, -9.23%
- CCN(CC)CCNC(=O)C(C)OCC(F)(F)F (stereo not drawn) — lower, -3.49%
- CCN1CC(C(=O)NCc2ccccc2-n2cccn2)CC1=O (stereo not drawn) — lower, -10.2%
- O=C1OCCC1N1CCN(C(=O)Cc2c[nH]c3ccccc23)CC1 (stereo not drawn) — higher, 7.81%
- Cc1noc(C)c1CN1CCCC1C(=O)OCc1ccccc1 (stereo not drawn) — lower, -10.7%
- Cc1ccccc1C(C(=O)O)N(C)CC1CCOCC1 (stereo not drawn) — higher, -2.17%
- CC(NS(=O)(=O)CC1(C#N)CCCC1)c1cccc(-n2cccn2)c1 (stereo not drawn) — lower, -3.64%
- CN1CCOC(CNC(=O)COc2ccc(F)cc2F)C1 (stereo not drawn) — higher, 0.568%
- Fc1ccc(CNCc2nnc3n2CC(C(F)(F)F)CC3)cc1 (stereo not drawn) — lower, -13.6%
- N#Cc1cccc(CN2C(=O)c3ccccc3CS2(=O)=O)c1 — higher, -2.45%
- Cc1cc(C)cc(CN2C[C@@H]3OCCN(S(=O)(=O)N(C)C)[C@@H]3C2)c1 — lower, -5.73%
- COc1nn(C)cc1C(=O)NCC1(O)CCOCC1 — lower, -3.26%
- CCCc1cc(=O)[nH]c2nnc(SCC(=O)OCC)n12 — lower, -9.96%
- CCN(C(C)=O)C(c1cccnc1)c1cc(C)cc(C)c1 (stereo not drawn) — higher, 6.16%
- CC(Nc1cccc2c1OCCO2)C(=O)NC(N)=O (stereo not drawn) — higher, -2.31%
- Cc1cc(NCCOCCS(C)(=O)=O)nc2ccccc12 — higher, 1.59%
- O=C1CN(C(=O)c2cc(-c3ccco3)nc3c(Cl)cccc23)CCN1 — higher, 9.84%
- CCN1CCC2(CC1)c1nc[nH]c1CCN2S(C)(=O)=O — lower, -6.08%
- CC(C(=O)N1CCCN(Cc2ccc(C#N)cc2)CC1)n1cncn1 (stereo not drawn) — higher, -1.82%
- CCSCCNC(=O)c1cnc(-c2ccccc2)nc1O — higher, 7.82%
- Cc1nc(C2CCCN(C(=O)CN3CCCNC3=O)C2)sc1C (stereo not drawn) — lower, -8.3%
- Cc1ccc(OCC(=O)N(C)Cc2ccc(F)cc2)cn1 — lower, -8.48%
- N#Cc1cnc2cc(F)cc(F)c2c1NC1CCN(CC(N)=O)CC1 — lower, -4.4%
- Cc1ccc(Oc2c(F)cccc2OC[C@@H](N)CC(C)C)cc1 — higher, 23.8%
- CC(=O)NC1CCCN(C(=O)NCc2cccnc2)C1 (stereo not drawn) — higher, 0.9%
- COc1c(C2CCCN2C(=O)c2ccc(C#N)c(C)n2)c(C)nn1C (stereo not drawn) — lower, -8.97%
- C[C@@H]1C[C@H]2CN(C(=O)C3=CCCCC3)C[C@H]2O1 — lower, -10.1%
- COc1nn(C)c2c1CCCN(C(=O)c1ccc(C)c(F)c1)C2 — lower, -101%
